Data on 20 molecules can be found in patent US20080188554A1, “METHODS OF TREATING AVIAN HYPERTENSION” (Regents of the University of California Office of …, priority 2006, published 2008).

Like-named read-outs stand apart in the source and are kept apart here.

Data set [1] addresses partially purified recombinant chicken sEH (Gallus gallus, UniProt Q45QT1). Briefly: Inhibitor assay with fluorescent substrate PHOME. In kind it is biochemical. The note with it: PHOME 50 μM. The protocol:
Dilutions of enzyme, inhibitors and substrate were made in BisTris-HCl buffer (25 mM, pH 7.0, 0.1 mg/ml BSA). The enzyme was incubated with 20 μL of inhibitor dilutions for 10 min prior to substrate addition. After this incubation, 50 μL of (3-phenyl-oxiranyl)-acetic acid cyano-(6-methoxy-naphthalen-2-yl)-methyl ester (PHOME) at a final concentration of 50 μM (1% final DMSO content per well) was added.
The inhibitor screen occurred in two steps. The first step was incubation with a final inhibitor concentration of 100 nM. Positive hits obtained in this primary screen were then incubated with inhibitors at final concentrations of 1, 10, and 100 nM.

Data set [2] addresses T1, Recombinant chicken sEH (Gallus gallus, UniProt Q45QT1). Kind of data set: Non-radioactive epoxide hydrolase assay (HPLC-MS/MS), specific activity of substrates. Format: biochemical. The note with it: for Specific activity: compound as substrate, 50 μM, 30° C., 10 min. The protocol: The trans-9,10-epoxystearate was purchased (Sigma-Aldrich). A 5 mM solution of each substrate was made in ethanol for the EETs and methanol for the epoxystearate. The substrate solution (1 μL) was added to 100 μL of enzyme preparation in sodium phosphate buffer (0.1 M, pH 7.4) containing 0.1 mg/mL of BSA ([S]final=50 μM). The enzyme was incubated with the substrate at 30° C. for 10 min, and the reaction quenched by addition of 400 μL of methanol. The products were analyzed by HPLC-MS/MS as previously described (Newman, J. W. et al., J. Lipid Res. 43:1563-1578 (2002)) with the following exceptions. A 2.0×20 mm, 3-μm Luna C18 Mercury MS column (Phenomenex, Torrance, Calif.) was used with a 350 μL/min isocratic flow of […] (vol/vol/vol) acetonitrile/water/methanol with 0.1% glacial acetic acid for 2.5 min. Assays were performed in triplicate.

Data set [3] concerns the target T2, mouse sEH (Mus musculus, UniProt P34914).
T2 sequence (P34914 1-554): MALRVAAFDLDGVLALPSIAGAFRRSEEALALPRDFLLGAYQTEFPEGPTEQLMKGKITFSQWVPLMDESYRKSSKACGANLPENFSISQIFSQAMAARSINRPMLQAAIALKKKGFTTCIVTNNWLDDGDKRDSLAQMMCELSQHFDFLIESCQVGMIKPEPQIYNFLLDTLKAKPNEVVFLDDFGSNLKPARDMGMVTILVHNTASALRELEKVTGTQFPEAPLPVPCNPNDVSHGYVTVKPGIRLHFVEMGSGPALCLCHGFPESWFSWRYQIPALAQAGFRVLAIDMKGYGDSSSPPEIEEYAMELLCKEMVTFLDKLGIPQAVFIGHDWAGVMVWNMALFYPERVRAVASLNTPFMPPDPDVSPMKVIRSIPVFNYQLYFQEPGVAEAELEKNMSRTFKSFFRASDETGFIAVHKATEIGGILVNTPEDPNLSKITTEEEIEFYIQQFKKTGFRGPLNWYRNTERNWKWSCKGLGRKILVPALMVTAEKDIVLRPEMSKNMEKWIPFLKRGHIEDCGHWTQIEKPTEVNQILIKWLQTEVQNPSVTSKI
The note with it: compound as substrate, from Chacos 1983; cited from earlier work.

The target of data set [4] is T1, Recombinant chicken sEH. Kind of data set: IC50 determination using [3H]-t-DPPO as substrate. Format: biochemical. How it is done: The IC50 values reported herein were determined using racemic [^3H]-trans-1,3-diphenylpropene oxide (t-DPPO) as a substrate (Borhan, B. et al., Anal. Biochem. 231:188-200 (1995)). The inhibitors were synthesized as described (Morisseau, C. et al., Biochem. Pharmacol. 63:1599-1608 (2002)). Extracts of broiler hepatic cytosol or partially purified enzyme was diluted 50-fold in pH 7.4 0.1 M sodium phosphate buffer containing 0.1 mg/mL BSA, then incubated with the inhibitors for 5 min at 30° C. prior to substrate introduction. Prepared samples were incubated at 30° C. for 10 min and stopped as indicated above. Conditions used gave rates that were linear both with time and enzyme concentration. Assays were performed in triplicate. By definition, IC50 is the concentration of inhibitor that reduces enzyme activity by 50%. IC50 was determined by regression with a minimum of two points in the linear region of the curve on either side of the IC50 (for a total of 5 points). The curve was generated from at least three separate studies conducted in triplicate in order to obtain the standard deviation given in the results section.

Data set [5] deals with T1, Recombinant chicken sEH. Briefly: Radiotracer epoxide hydrolase activity and kinetic parameters using t-DPPO as substrate. In kind it is biochemical. The protocol: (§1) Epoxide hydrolase activity was measured using racemic [^3H]-trans-1,3-diphenylpropene oxide (t-DPPO) as substrate (Borhan, B. et al., Anal. Biochem. 231:188-200 (1995)). t-DPPO was previously synthesized and purified Borhan, B. et al., Anal. Biochem. 231:188-200 (1995)). 1 μL of a 5 mM solution of [^3H]t-DPPO in DMF was added to 100 μL of enzyme preparation in sodium phosphate buffer (0.1 M, pH 7.4) containing 0.1 mg/mL of BSA ([S]final=50 μM). The enzyme was incubated at 30 °C for 10 min, and the reaction quenched by addition of 60 μL of methanol and 200 μL of isooctane, which extracts the remaining epoxide from the aqueous phase. Extractions with 1-hexanol were performed in parallel to assess the possible presence of glutathione transferase activity which could also transform the substrate (Borhan, B. et al., Anal. Biochem. 231:188-200 (1995)). The activity was followed by measuring the quantity of radioactive diol formed in the aqueous phase using a scintillation counter (Wallac Model 1409, Gaithersburg, Md.). Assays were performed in triplicate.
A solution of [^3H] t-DPPO (1 μL in DMF) was added to 100 μL of enzyme preparation in sodium phosphate buffer (0.1 M, pH 7.4) containing 0.1 mg/mL of BSA ([S]final=50 μM). The Km determination was performed by fitting the data to the Michaelis-Menten equation using the nonlinear regression algorithm in SigmaPlot (SPSS, Inc., Chicago, Ill.) with an R-squared value of at least 0.97. The standard deviation was generated by performing the experiment three separate times in triplicate.

Data set [6] addresses T2, mouse sEH. The note with it: t-DPPO as substrate, from Morisseau 2000; cited from earlier work.
The next data set concerns the target T3, sEH (Homo sapiens, UniProt P34913).
T3 sequence (P34913 1-555): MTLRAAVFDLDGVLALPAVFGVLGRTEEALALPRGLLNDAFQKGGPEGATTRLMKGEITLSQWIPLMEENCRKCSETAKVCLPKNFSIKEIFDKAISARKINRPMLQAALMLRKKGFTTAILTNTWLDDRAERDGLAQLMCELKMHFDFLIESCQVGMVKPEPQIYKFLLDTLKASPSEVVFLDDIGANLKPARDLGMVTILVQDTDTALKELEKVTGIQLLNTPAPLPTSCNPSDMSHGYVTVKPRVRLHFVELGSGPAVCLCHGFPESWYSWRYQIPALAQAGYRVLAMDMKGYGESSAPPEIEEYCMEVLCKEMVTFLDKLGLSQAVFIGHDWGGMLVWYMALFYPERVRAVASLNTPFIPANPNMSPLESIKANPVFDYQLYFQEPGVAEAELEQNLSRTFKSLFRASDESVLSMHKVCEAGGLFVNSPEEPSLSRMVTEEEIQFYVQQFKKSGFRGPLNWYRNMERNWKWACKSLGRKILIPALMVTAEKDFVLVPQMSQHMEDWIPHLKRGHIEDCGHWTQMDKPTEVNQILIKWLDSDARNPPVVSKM
Conditions: t-DPPO as substrate, from Morisseau 2000; cited from earlier work.

Substrate in data set [7]: c1ccc(CC2OC2c2ccccc2)cc1
Kind of data set: Radiotracer epoxide hydrolase activity and kinetic parameters using t-DPPO as substrate. Format: biochemical. The note with it: other: t-DPPO as substrate; recombinant chicken sEH; pH 7.4; 30.0 °C. How it is done: as §1
A solution of [^3H] t-DPPO (1 μL in DMF) was added to 100 μL of enzyme preparation in sodium phosphate buffer (0.1 M, pH 7.4) containing 0.1 mg/mL of BSA ([S]final=50 μM). […]

The mark [8] stands for this setting: partially purified recombinant chicken sEH, read-out: Chicken sEH IC50.

Regarding `C=CCOC1CCC(NC(=O)NC23CC4CC(CC(C4)C2)C3)CC1` (centres unmarked) [Compound 982], in data set [1] (setting [8]), the IC50 worked out at 1.7 ± 0.1 nM.
In the case of `O=C(Nc1cccc(Br)c1)NC1CCC(OCc2c(F)cccc2F)CC1` (centres unmarked) [Compound 1308], in data set [1] (setting [8]), the IC50 came out at 2.4 ± 0.1 nM.
The same measure, in the same setting: the figure for `CCCCCOC(=O)C1CCC(NC(=O)NC23CC4CC(CC(C4)C2)C3)CC1` (centres unmarked) [Compound 863] is 5.2 ± 0.2 nM; for `CC(C)=CCOC1CCC(NC(=O)NC23CC4CC(CC(C4)C2)C3)CC1` (centres unmarked) [Compound 983] it is 5.3 ± 0.2 nM; for `O=C(Nc1cccc(C(F)(F)F)c1)NC1CCC(OCc2c(F)cccc2F)CC1` (centres unmarked) [Compound 1285] it is 4.4 ± 0.1 nM.
In the case of `O=C(NC1CCCCCC1)NC1CCC(Oc2ccc(F)cc2)CC1` (centres unmarked) [Compound 1515], the IC50 in data set [1] (setting [8]) was 2.6 ± 0.1 nM.
On to `CCCCC/C=C\CC1OC1C/C=C\C/C=C\CCCC(=O)O` (centres unmarked) [11,12-EET], for which the Specific activity is 12.0 ± 1.2 nmol/min/mg at Recombinant chicken sEH [2] and 640.0 nmol/min/mg at mouse sEH [3].
In the case of `O=C(NCCCc1ccccc1)NC1CCC(OCc2c(F)cccc2F)CC1` (centres unmarked) [Compound 1318], the IC50 in data set [1] (setting [8]) was determined as 1.9 ± 0.1 nM.
Take `CCCCCC1OC1C/C=C\C/C=C\C/C=C\CCCC(=O)O` (centres unmarked) [14,15-EET]: at Recombinant chicken sEH [2], the “Activity relative to the activity measured with t-DPPO” value is “less than 1/30” and the Specific activity amounted to 24.5 ± 2.1 nmol/min/mg. The Specific activity on mouse sEH [3] is 1260.0 nmol/min/mg.
For the molecule `CCCCC/C=C\C/C=C\CC1OC1C/C=C\CCCC(=O)O` (centres unmarked) [8,9-EET], the Specific activity at Recombinant chicken sEH [2] is 11.6 ± 0.1 nmol/min/mg; on mouse sEH [3], 370.0 nmol/min/mg.
As for `O=C(NC1CCCCCC1)NC1CCC(Oc2ccc(F)cc2)CC1` (centres unmarked) [Compound 1271], the IC50 in data set [1] (setting [8]) was found to be 2.7 ± 0.3 nM.
In the case of `O=C(O)CCCCCCCCCCCNC(=O)NC12CC3CC(CC(C3)C1)C2` [AUDA, 12-(3-Adamantan-1-yl-ureido)dodecanoic acid], on Recombinant chicken sEH [4], the IC50 is 13.7 nM.
Take `O=C(O)CCCCCCCCCCCNC(=O)NC12CC3CC(CC(C3)C1)C2` [Compound 700]: in data set [1] (Chicken sEH IC50, partially purified recombinant chicken sEH), the IC50 worked out at 12.6 ± 1.6 nM.
Regarding `O=C(Nc1ccc(C(F)(F)F)cc1)NC1CCC(OCc2c(F)cccc2F)CC1` (centres unmarked) [Compound 1289], the IC50 in data set [1] (setting [8]) was found to be 3.5 ± 0.1 nM.
On the same count and under the same terms, the figure for `CCCCCOC(=O)C1CCCC(NC(=O)NC23CC4CC(CC(C4)C2)C3)C1` (centres unmarked) [Compound 861] is 5.7 ± 0.3 nM.
Same read-out and setting: to `O=C(NC1CCCCCCC1)NC1CCC(Oc2ccc(F)cc2)CC1` (centres unmarked) [Compound 1272] belongs 5.1 ± 0.3 nM; to `O=C(NCCCc1ccccc1)NC1CCC(Oc2ccc(F)cc2)CC1` (centres unmarked) [Compound 1270], 3.5 ± 0.1 nM.
On the same count and under the same terms, to `O=C(Nc1cccc(Cl)c1)NC1CCC(OCc2c(F)cccc2F)CC1` (centres unmarked) [Compound 1302] belongs 2 ± 0.1 nM.
`c1ccc(CC2OC2c2ccccc2)cc1` (racemic) [t-DPPO, trans-1,3-diphenylpropene oxide]: the “kcat/Km ratio of chicken enzyme, fold lower than human enzyme” value at Recombinant chicken sEH [5] (compared to human sEH) is listed as 20 fold. Besides, the “kcat/Km ratio of chicken enzyme, fold lower than mouse enzyme” value at Recombinant chicken sEH [5] (compared to mouse sEH) came out at 100 fold. In addition, the Specific activity is 823.1 ± 27.3 nmol/min/mg at Recombinant chicken sEH [5] (recombinant chicken sEH, mean ± SD of 3 experiments); 17000 ± 300.0 nmol/min/mg at mouse sEH [6]; 4500 ± 200.0 nmol/min/mg at sEH. The Km on mouse sEH [6] is 4.3 µM; on sEH, 6.2 µM. The figures for the kcat at mouse sEH [6] and at sEH were 18.0 ± 0.3 s⁻¹ and 4.3 ± 0.3 s⁻¹, respectively.

B1: Recombinant chicken sEH (Gallus gallus) (protein)
chain: MARRFALFDLGGVLFGPGLQHFLGSCERSYALPRNFLRDVLFAGGSDSPHAKVMRGQITLSQLFLEVDEGCRQHASTAGITLPTTFSIAHVFEEMAAKGTLNAPLLRAASMLRRNGFKTCVFTNNWVDDSMGRLFTSSLLTVVQRHFDLLIESCRVGLHKPDPRIYTYALEVLQAQPQEVIFLDDIGENLKPAREMGMATILVRDTDTVLKELQELSGVQLLQQEEPLPTTCDPATMSHGYVPIRPGVQLHFVEMGHGPAICLCHGFPESWLSWRYQIPALADAGFRVIALEMKGYGESTAPPEIEEYSQEQICKDLTIFLDKLGIPQAVFIGHDWGGAVVWNMALFYPERVRAVASLNTPYRPADPTVDIVETMKSFPMFDYQFYFQEPGVAEAELEKDIGRTLKALIRSTRPEDRLHSVPGLLGVQERGGLLVGFPEDIPESLILHGAELQYYIERFQRSGFRGPLNWYRNMRPNWRWALSAKDRKILMPALMVTAGKDVVLLPSMSKGMEEWIPQLRRGHLEACGHWTQMERPAALNRILVEWLEGLPPDGAMLRVSRL
Regarding B1, the Km in data set [7] is 25.3 µM.

For orientation: IC50 means the concentration needed to halve the response being measured. One may read the Km as the substrate concentration at which the rate is half of its maximum. What is called kcat is the number of substrate molecules converted per active site and unit of time at saturation.
